Measurements reported in PubChem BioAssay (NCI).
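Protocol summary: plate cells (96-well), add compound at 5 concentrations, incubate 48 h, interpolate endpoints linearly. At the GI50, growth is halved. TGI is the concentration that stops growth completely.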

Key:
Assay in all cases: inhibition of tumour cell growth, NCI panel, 48 h
786-0 renal = system: 786-0 renal
ACHN renal = system: ACHN renal
BT-549 breast = system: BT-549 breast
CAKI-1 renal = system: CAKI-1 renal
CCRF-CEM leukemia = system: CCRF-CEM leukemia
COLO 205 colon = system: COLO 205 colon
HCC-2998 colon = system: HCC-2998 colon
HCT-116 colon = system: HCT-116 colon
HOP-62 NSCLC = system: HOP-62 NSCLC
HOP-92 NSCLC = system: HOP-92 NSCLC
HS 578T breast = system: HS 578T breast
HT29 colon = system: HT29 colon
KM12 colon = system: KM12 colon
M14 melanoma = system: M14 melanoma
MCF7 breast = system: MCF7 breast
MDA-MB-435 = system: MDA-MB-435
MOLT-4 leukemia = system: MOLT-4 leukemia
NCI-H226 lung = system: NCI-H226 lung
OVCAR-3 ovarian = system: OVCAR-3 ovarian
OVCAR-4 ovarian = system: OVCAR-4 ovarian
OVCAR-8 ovarian = system: OVCAR-8 ovarian
PC-3 prostate = system: PC-3 prostate
RPMI-8226 leukemia = system: RPMI-8226 leukemia
RXF 393 renal = system: RXF 393 renal
SF-268 CNS = system: SF-268 CNS
SF-295 CNS = system: SF-295 CNS
SK-MEL-28 melanoma = system: SK-MEL-28 melanoma
SK-MEL-5 melanoma = system: SK-MEL-5 melanoma
SK-OV-3 ovarian = system: SK-OV-3 ovarian
SNB-19 CNS = system: SNB-19 CNS
SNB-75 CNS = system: SNB-75 CNS
SR leukemia = system: SR leukemia
T-47D breast = system: T-47D breast
TK-10 renal = system: TK-10 renal
UO-31 renal = system: UO-31 renal
A498 renal = system: A498 renal
A549 NSCLC = system: A549 NSCLC
DU-145 prostate = system: DU-145 prostate
EKVX NSCLC = system: EKVX NSCLC
HL-60(TB) leukemia = system: HL-60(TB) leukemia
K-562 leukemia = system: K-562 leukemia
MALME-3M melanoma = system: MALME-3M melanoma
MDA-MB-231 breast = system: MDA-MB-231 breast
NCI-H23 lung = system: NCI-H23 lung
NCI-H460 lung = system: NCI-H460 lung
NCI-H522 lung = system: NCI-H522 lung
OVCAR-5 ovarian = system: OVCAR-5 ovarian
SF-539 CNS = system: SF-539 CNS
SK-MEL-2 melanoma = system: SK-MEL-2 melanoma
SN12C renal = system: SN12C renal
SW-620 colon = system: SW-620 colon
U251 CNS = system: U251 CNS
UACC-257 melanoma = system: UACC-257 melanoma
UACC-62 melanoma = system: UACC-62 melanoma

CO[C@H]1CC(O[C@@H]2/C(C)=C/C[C@@H]3C[C@@H](C[C@]4(C=C[C@H](C)[C@@H](C5CCCCC5)O4)O3)OC(=O)[C@@H]3C=C(C)[C@@H](O)[C@H]4OC/C(=C\C=C\[C@@H]2C)[C@]43O)O[C@@H](C)C1O[C@H]1C[C@H](OC)[C@@H](O)[C@H](C)O1 (stereo partly drawn)
GI50 (786-0 renal): 1540 nM
TGI (786-0 renal): 3140 nM
GI50 (ACHN renal): 1660 nM
TGI (ACHN renal): 3040 nM
GI50 (BT-549 breast): 1780 nM
TGI (BT-549 breast): 3240 nM
GI50 (CAKI-1 renal): 1220 nM
TGI (CAKI-1 renal): 2730 nM
GI50 (CCRF-CEM leukemia): 1880 nM
TGI (CCRF-CEM leukemia): 4400 nM
GI50 (COLO 205 colon): 2030 nM
TGI (COLO 205 colon): 3710 nM
GI50 (HCC-2998 colon): 1510 nM
TGI (HCC-2998 colon): 3000 nM
GI50 (HCT-116 colon): 1400 nM
TGI (HCT-116 colon): 2720 nM
GI50 (HOP-62 NSCLC): 1730 nM
TGI (HOP-62 NSCLC): 3220 nM
GI50 (HOP-92 NSCLC): 301 nM
TGI (HOP-92 NSCLC): 1890 nM
GI50 (HS 578T breast): 2450 nM
TGI (HS 578T breast): > 100000 nM
GI50 (HT29 colon): 1870 nM
TGI (HT29 colon): 3850 nM
GI50 (KM12 colon): 1770 nM
TGI (KM12 colon): 3540 nM
GI50 (M14 melanoma): 1670 nM
TGI (M14 melanoma): 3130 nM
GI50 (MCF7 breast): 1820 nM
TGI (MCF7 breast): 5840 nM
GI50 (MDA-MB-435): 1570 nM
TGI (MDA-MB-435): 3130 nM
GI50 (MOLT-4 leukemia): 2050 nM
TGI (MOLT-4 leukemia): 4830 nM
GI50 (NCI-H226 lung): 1450 nM
TGI (NCI-H226 lung): 2950 nM
GI50 (OVCAR-3 ovarian): 1660 nM
TGI (OVCAR-3 ovarian): 3120 nM
GI50 (OVCAR-4 ovarian): 1520 nM
TGI (OVCAR-4 ovarian): 2880 nM
GI50 (OVCAR-8 ovarian): 2070 nM
TGI (OVCAR-8 ovarian): 5290 nM
GI50 (PC-3 prostate): 1080 nM
TGI (PC-3 prostate): 2680 nM
GI50 (RPMI-8226 leukemia): 1390 nM
TGI (RPMI-8226 leukemia): 4380 nM
GI50 (RXF 393 renal): 1180 nM
TGI (RXF 393 renal): 2460 nM
GI50 (SF-268 CNS): 1690 nM
TGI (SF-268 CNS): 3180 nM
GI50 (SF-295 CNS): 1330 nM
TGI (SF-295 CNS): 2830 nM
GI50 (SK-MEL-28 melanoma): 1580 nM
TGI (SK-MEL-28 melanoma): 3030 nM
GI50 (SK-MEL-5 melanoma): 1410 nM
TGI (SK-MEL-5 melanoma): 2770 nM
GI50 (SK-OV-3 ovarian): 1970 nM
TGI (SK-OV-3 ovarian): 3610 nM
GI50 (SNB-19 CNS): 2030 nM
TGI (SNB-19 CNS): 6520 nM
GI50 (SNB-75 CNS): 1450 nM
TGI (SNB-75 CNS): 3600 nM
GI50 (SR leukemia): 1860 nM
TGI (SR leukemia): 4620 nM
GI50 (T-47D breast): 1650 nM
TGI (T-47D breast): 3430 nM
GI50 (TK-10 renal): 1840 nM
TGI (TK-10 renal): 3510 nM
GI50 (UO-31 renal): 1400 nM
TGI (UO-31 renal): 2710 nM

CCCCCCCCCCCCCCCCCC1=NCCN1CCOC1=C(Cl)C(=O)c2ccccc2C1=O
GI50 (786-0 renal): 2190 nM
TGI (786-0 renal): 4090 nM
GI50 (A498 renal): 3920 nM
TGI (A498 renal): 14700 nM
GI50 (A549 NSCLC): 4480 nM
TGI (A549 NSCLC): 22900 nM
GI50 (ACHN renal): 1580 nM
TGI (ACHN renal): 3010 nM
GI50 (BT-549 breast): 2460 nM
TGI (BT-549 breast): 6120 nM
GI50 (CAKI-1 renal): 1570 nM
TGI (CAKI-1 renal): 2980 nM
GI50 (CCRF-CEM leukemia): 527 nM
TGI (CCRF-CEM leukemia): 7170 nM
GI50 (COLO 205 colon): 1670 nM
TGI (COLO 205 colon): 3090 nM
GI50 (DU-145 prostate): 6090 nM
TGI (DU-145 prostate): 18100 nM
GI50 (EKVX NSCLC): 1460 nM
TGI (EKVX NSCLC): 3320 nM
GI50 (HCC-2998 colon): 3510 nM
TGI (HCC-2998 colon): 12300 nM
GI50 (HCT-116 colon): 1820 nM
TGI (HCT-116 colon): 3430 nM
GI50 (HL-60(TB) leukemia): 1340 nM
TGI (HL-60(TB) leukemia): 6000 nM
GI50 (HOP-62 NSCLC): 1770 nM
TGI (HOP-62 NSCLC): 3270 nM
GI50 (HOP-92 NSCLC): 1780 nM
TGI (HOP-92 NSCLC): 3400 nM
GI50 (HT29 colon): 2580 nM
TGI (HT29 colon): 6130 nM
GI50 (K-562 leukemia): 828 nM
TGI (K-562 leukemia): 4200 nM
GI50 (KM12 colon): 1910 nM
TGI (KM12 colon): 3610 nM
GI50 (M14 melanoma): 1840 nM
TGI (M14 melanoma): 3390 nM
GI50 (MALME-3M melanoma): 1950 nM
TGI (MALME-3M melanoma): 4130 nM
GI50 (MDA-MB-231 breast): 2050 nM
TGI (MDA-MB-231 breast): 5030 nM
GI50 (MDA-MB-435): 2050 nM
TGI (MDA-MB-435): 4020 nM
GI50 (MOLT-4 leukemia): 747 nM
TGI (MOLT-4 leukemia): 3800 nM
GI50 (NCI-H23 lung): 2500 nM
TGI (NCI-H23 lung): 7730 nM
GI50 (NCI-H460 lung): 3330 nM
TGI (NCI-H460 lung): 16100 nM
GI50 (NCI-H522 lung): 1790 nM
TGI (NCI-H522 lung): 3380 nM
GI50 (OVCAR-3 ovarian): 1850 nM
TGI (OVCAR-3 ovarian): 3340 nM
GI50 (OVCAR-5 ovarian): 2290 nM
TGI (OVCAR-5 ovarian): 5270 nM
GI50 (OVCAR-8 ovarian): 1950 nM
TGI (OVCAR-8 ovarian): 4430 nM
GI50 (PC-3 prostate): 1850 nM
TGI (PC-3 prostate): 4270 nM
GI50 (RPMI-8226 leukemia): 2170 nM
TGI (RPMI-8226 leukemia): 5280 nM
GI50 (RXF 393 renal): 1790 nM
TGI (RXF 393 renal): 3200 nM
GI50 (SF-268 CNS): 2080 nM
TGI (SF-268 CNS): 4610 nM
GI50 (SF-539 CNS): 1830 nM
TGI (SF-539 CNS): 3780 nM
GI50 (SK-MEL-2 melanoma): 2390 nM
TGI (SK-MEL-2 melanoma): 5080 nM
GI50 (SK-MEL-28 melanoma): 3310 nM
TGI (SK-MEL-28 melanoma): 9050 nM
GI50 (SK-MEL-5 melanoma): 2360 nM
TGI (SK-MEL-5 melanoma): 6750 nM
GI50 (SK-OV-3 ovarian): 1930 nM
TGI (SK-OV-3 ovarian): 5110 nM
GI50 (SN12C renal): 3180 nM
TGI (SN12C renal): 9470 nM
GI50 (SNB-19 CNS): 3560 nM
TGI (SNB-19 CNS): 11500 nM
GI50 (SNB-75 CNS): 2200 nM
TGI (SNB-75 CNS): 8540 nM
GI50 (SR leukemia): 2070 nM
TGI (SR leukemia): 4720 nM
GI50 (SW-620 colon): 1730 nM
TGI (SW-620 colon): 3410 nM
GI50 (T-47D breast): 1860 nM
TGI (T-47D breast): 4430 nM
GI50 (TK-10 renal): 2190 nM
TGI (TK-10 renal): 3760 nM
GI50 (U251 CNS): 1870 nM
TGI (U251 CNS): 3670 nM
GI50 (UACC-257 melanoma): 1830 nM
TGI (UACC-257 melanoma): 3300 nM
GI50 (UACC-62 melanoma): 2120 nM
TGI (UACC-62 melanoma): 4990 nM
GI50 (UO-31 renal): 1370 nM
TGI (UO-31 renal): 2770 nM
